Test results taken from patent publication US20230121689A1, “CEPHALOSPORIN ANTIBACTERIAL COMPOUND AND PHARMACEUTICAL APPLICATION THEREOF” (priority 2020, published 2023).
≈ marks a conversion by molar mass, not a printed value. Where two headings read alike, the source gives them in different places.

Legend:
Type in all cases: cell-based
[1] = tested on: Carbapenem-resistant Pseudomonas aeruginosa (CRPA, Pseudomonas aeruginosa); assay: Test Example 2: antibacterial activity test (MIC); conditions: CAMHB
Method: (§1) 1. The test compounds were dissolved in sterile normal saline, vortexed for uniformly mixing, and diluted in a 2-fold dilution with the sterile normal saline (11 concentration points in total). The test concentration range was 32-0.031 μg/mL, and two duplicate wells were set for each concentration. Additional wells without drug dosing were set as growth controls. 2. 4 μL of the diluent was added to 196 μL of the bacterial suspension in a 96-well plate (the bacterial count in the bacterial suspension was 2-8×10^5 colony forming units/mL). 3.
(§2) The minimum inhibitory concentration (MIC) assay was performed with reference to the Clinical and Laboratory Standards Institute (CLSI) guidelines.

[2] = tested on: Carbapenem-resistant Enterobacteriaceae (CRE, Klebsiella pneumoniae); assay: Test Example 2: antibacterial activity test (MIC)
Method: as §1, §2

[3] = tested on: Control Strain Pseudomonas aeruginosa ATCC 27853; assay: Test Example 2: antibacterial activity test (MIC); conditions: ATCC27853, CAMHB, ATCC 27853, read-out: CAMHB MIC
Method: as §1, §2

[4] = tested on: Carbapenem-resistant Acinetobacter baumannii (CRAB, Acinetobacter baumannii); assay: Test Example 2: antibacterial activity test (MIC); conditions: CAMHB
Method: as §1, §2

[5] = tested on: Control strain Escherichia coli ATCC 25922; assay: Test Example 2: antibacterial activity test (MIC); conditions: ATCC25922, CAMHB, ATCC 25922, read-out: CAMHB MIC
Method: as §1, §2

[6] = tested on: Carbapenem-resistant Acinetobacter baumannii (CRAB); assay: Test Example 1: antibacterial activity test (MIC)
Method: (§3) The test compounds were diluted in a gradient and used for an MIC assay on the test strains. The test compounds at an initial assay concentration of 32 μg/mL were diluted in a 2-fold gradient (11 concentration points in total), and two duplicate wells were set for each concentration. Additional wells without drug dosing were set as growth controls. The minimum inhibitory concentration (MIC) assay was performed with reference to the Clinical and Laboratory Standards Institute (CLSI) guidelines.
(§4) After the frozen strains were subcultured, a single colony was picked and re-suspended in normal saline or sterile water in a tube. The bacterial suspension was vortexed and adjusted to 0.5 McF using a spectrophotometer at the wavelength of 530 nm. The bacterial solution was taken by a pipette, added to a culture medium, diluted and mixed well, and seeded to a bacterial assay plate.
(§5) The 96-well plate was affixed with a disposable sealing film, shaken and mixed well, and visually observed using a plate reader. The minimum concentration of the compounds capable of inhibiting the growth of bacteria was defined as MIC as compared to the growth controls.

[7] = tested on: Carbapenem-resistant Enterobacteriaceae (CRE); assay: Test Example 1: antibacterial activity test (MIC)
Method: as §3, §4, §5

[8] = tested on: Carbapenem-resistant Pseudomonas aeruginosa (CRPA); assay: Test Example 1: antibacterial activity test (MIC)
Method: as §3, §4, §5

C[C@@H](O)[C@H]1C(=O)N2C(C(=O)O)=C(S[C@@H]3CN[C@H](C(=O)N(C)C)C3)[C@H](C)[C@H]12 [Meropenem, reference compound]
MIC ([1]; FDA-CDC AR-BANK #0439, read-out: CAMHB MIC): > 32 µg/mL
MIC ([1]; FDA-CDC AR-BANK #0441, read-out: CAMHB MIC): > 32 µg/mL
MIC ([1]; FDA-CDC AR-BANK #0444, read-out: CAMHB MIC): > 32 µg/mL
MIC ([1]; FDA-CDC AR-BANK #0457, read-out: CAMHB MIC): > 32 µg/mL
MIC ([2]; read-out: CAMHB MIC, CAMHB, FDA-CDC AR-BANK #0361): 16 µg/mL (≈ 41.7 µM)
MIC ([2]; read-out: CAMHB MIC, CAMHB, FDA-CDC AR-BANK #0362): > 32 µg/mL
MIC ([2]; read-out: CAMHB MIC, CAMHB, FDA-CDC AR-BANK #0363): 32 µg/mL (≈ 83.4 µM)
MIC ([2]; read-out: CAMHB MIC, CAMHB, FDA-CDC AR-BANK #0438): > 32 µg/mL
MIC ([2]; read-out: CAMHB MIC, CAMHB, FDA-CDC AR-BANK #0453): > 32 µg/mL
MIC [3]: 0.5 µg/mL (≈ 1.3 µM)
MIC ([4]; FDA-CDC AR-BANK #0036, read-out: CAMHB MIC): > 32 µg/mL
MIC ([4]; FDA-CDC AR-BANK #0052, read-out: CAMHB MIC): 16 µg/mL (≈ 41.7 µM)
MIC ([4]; FDA-CDC AR-BANK #0063, read-out: CAMHB MIC): > 32 µg/mL
MIC ([4]; FDA-CDC AR-BANK #0070, read-out: CAMHB MIC): 8 µg/mL (≈ 20.9 µM)
MIC ([4]; FDA-CDC AR-BANK #0101, read-out: CAMHB MIC): > 32 µg/mL
MIC [5]: ≤ 0.0312 µg/mL
MIC ([6]; CRAB strain No. 100085): 32 µg/mL (≈ 83.4 µM)
MIC ([6]; CRAB strain No. 100333): > 32 µg/mL
MIC ([6]; CRAB strain No. 110440): 32 µg/mL (≈ 83.4 µM)
MIC ([6]; CRAB strain No. 110477): > 32 µg/mL
MIC ([6]; CRAB strain No. 110517): 32 µg/mL (≈ 83.4 µM)
MIC ([7]; CRE strain No. 100109): > 32 µg/mL
MIC ([7]; CRE strain No. 100186): > 32 µg/mL
MIC ([7]; CRE strain No. 110502): 32 µg/mL (≈ 83.4 µM)
MIC ([7]; CRE strain No. 110525): 32 µg/mL (≈ 83.4 µM)
MIC ([7]; CRE strain No. 311277): 32 µg/mL (≈ 83.4 µM)
MIC ([8]; CRPA strain No. 100110): 32 µg/mL (≈ 83.4 µM)
MIC ([8]; CRPA strain No. 110163): 24 µg/mL (≈ 62.6 µM)
MIC ([8]; CRPA strain No. 110224): 16 µg/mL (≈ 41.7 µM)
MIC ([8]; CRPA strain No. 110358): 4 µg/mL (≈ 10.4 µM)
MIC ([8]; CRPA strain No. 110390): 12 µg/mL (≈ 31.3 µM)
